According to US20220072128A1, “ULTRASOUND-INDUCED CONVECTION FOR DRUG DELIVERY AND TO DRIVE GLYMPHATIC OR LYMPHATIC FLOWS” (The Board of Trustees of the Leland Stanford Junior …, priority 2020, published 2022):
“Also recorded” adds a separate entry of the source. Blank lines part the entries; values can stand above or below the molecule they belong to.

Tests used:
[1] = Quantitative T1-mapping MRI of glymphatic transport of intrathecally (cisterna magna) injected Gd-chelate into the brain, transcranial ultrasound vs sham; assay type: in vivo, rat; set-up: mean gadolinium-enhanced volume: unit not given here
Method: (§1) Animals. The Institutional Animal Care and Use Committees of Stanford University approved all animal experiments. Tests were performed in 42 male Long-Evans rats with bodyweight 300-350 gm (Charles River Laboratories, Wilmington, Mass., USA). Animals were randomly assigned to one of two groups: (1) no treatment (Sham), and (2) treatment (Ultrasound). Ultrasound (0.25 MI in situ, 7.7% duty cycle for 10 min) or sham was applied transcranially throughout the brain (FIG. 1A). Before each procedure, the fur on the neck was shaved and a cisterna magna injection of a gadolinium (Gd) chelate (Multihance, Bracco Diagnostics, NJ, USA) was performed while the animal was anesthetized under isoflurane. The body temperature, cardiac and respiratory rates, and O2 saturation were monitored throughout the experiment and the isoflurane level was titrated to keep these parameters constant; environmental heating was used to help maintain body temperature. Localizer, FLASH-T1-3D, T1-mapping, and T2*-weighted MR images were taken to visualize glymphatic transport across the brain, to quantify Gd-chelate kinetic parameters, and to evaluate for parenchymal damage. In separate cohorts, either of two different sized optical tracers, a small molecule (IR800CW Carboxylate, LICOR, Lincoln, Nebr., USA; ˜1 kDa) or a large molecule (Panitumumab-IRDye800: ˜150 kDa, 5 nM, produced under GMP at the Leidos Biomedical Research Center, Frederick, Md., USA) (39) were co-delivered with the Gd-chelate to model the delivery of similar-sized therapeutic agents.
Intrathecal Cisterna Magna Injection For anesthesia, the animals were induced with 5% isoflurane in oxygen using an induction chamber and then switched to a maintenance dose of 2%. The animal was positioned in a stereotaxic frame (Stoelting, Wood Dale, Ill., USA), immobilized with ear bars, and then the head flexed to 45 degrees. A 27-gauge catheter (Butterfly Needle, SAI Infusion Technology, Lake Villa, Ill., USA) was inserted in the cisterna magna to inject up to 80 μl of tracers (Gd-chelate: MultiHance, gadobenate dimeglumine; Bracco Diagnostics Inc, NJ, USA; 0.21 ml/kg) slowly over 30 seconds. To model the delivery of similar-sized therapeutic agents, two different sized molecules, free dye (IRDye800CW Carboxylate, LICOR, Lincoln, Nebr., USA; ˜1 kDa; 36 nmol/kg) and IR dye-conjugated antibody (Panitumumab-IRDye800: ˜150 kDa; 0.133 mg/kg) were co-delivered with the Gd-chelate. The respiratory rate (45-50 breaths per minute), and normal body temperature (36.5-37.5° C.) were maintained throughout the experiment through titration of isoflurane dose and with environmental heating.
Magnetic Resonance Imaging Protocol. Magnetic Resonance Imaging (MRI) (an actively-shielded Bruker 7T horizontal bore scanner (Bruker Corp, Billerica Mass.), with International Electric Co. (IECO) gradient drivers, a 120 mm ID shielded gradient insert (600 mT/m, 1000 T/m/s), AVANCE III electronics; 8-channel multi-coil RF and multinuclear capabilities and volume RF coils; and the supporting Paravision 6.0.1 platform) was used to visualize glymphatic transport of Gd-chelate into the brain and to make quantitative T1-maps. The facility provides isoflurane anesthesia in medical-grade oxygen, and physiological monitoring of the subject including ECG, pulse oximetry, respiration, and temperature feedback for core body temperature maintenance by warm airflow over the animal. Following cisterna magna contrast agent injection, an MRI compatible animal FUS system (Image Guided Therapy—IGT, Pessac, France) was used in all experiments. Animals were placed in a prone position in a plastic stereotactic frame that has a single channel radiofrequency transmit-receive head coil (IGT) which is coupled to the FUS system. Animals were immobilized in the frame with ear bars and a bite bar. Noninvasive, MRI-compatible monitors for the respiratory rate and body temperature were used during the imaging session. […]

[2] = Near-infrared fluorescence imaging of brain slices after intrathecal co-delivery of optical tracers, transcranial ultrasound vs sham; assay type: in vivo, rat; details: about 2 hours after intrathecal delivery, 10 min ultrasound
Method: as §1, with “In separate cohorts, either of two different sized optical tracers, a small molecule (IR800CW Carboxylate, LICOR, Lincoln, Nebr., USA; ˜1 kDa) or a large molecule (Panitumumab-IRDye800: ˜150 kDa, 5 nM, produced under GMP at the Leidos Biomedical Research Center, Frederick, Md., USA) (39) were co-delivered with the Gd-chelate to model the delivery of similar-sized therapeutic agents.” left out
Fluorescence Imaging. […] Tissue sections were thaw-mounted on microscope glass slides (Fisher, Pittsburgh, Pa.), fixed the tissue-slides using 4% paraformaldehyde, and applied DAPI for fluorescence imaging. […]

- time at which perivascular influx of CSF into the brain is initially observed ([1]; 3D T1w MRI, after intrathecal administration): 12 min
- brain volume containing a resolvable amount of contrast agent, ultrasound versus sham ([1]; T1-mapping MRI over time): significantly larger volume of brain
- time by which cleared from the CSF-ISF spaces ([1]; T1w MRI after cisternal injection): ≤ 3 h
- mean gadolinium-enhanced volume ([1]; Ultrasound cohort (0.25 MI, 10 min, applied at 23 min), 12 min baseline): 0.18±0.07
- mean gadolinium-enhanced volume ([1]; Ultrasound cohort, 35 min): 0.43±0.16
- mean gadolinium-enhanced volume ([1]; Ultrasound cohort, 70 min): 0.44±0.17
- mean gadolinium-enhanced volume ([1]; Ultrasound cohort, 105 min): 0.45±0.25
- mean gadolinium-enhanced volume ([1]; Ultrasound cohort, 180 min): 0.18±0.24
- mean gadolinium-enhanced volume ([1]; Ultrasound cohort, 240 min): 0.17±0.24
- increase of peak parenchymal uptake with ultrasound ([1]; low-intensity transcranial scanning ultrasound vs sham): 72-101%
- mean gadolinium-enhanced volume ([1]; sham cohort, 12 min after intrathecal injection, mean ± S.D.): 0.17±0.084
- mean gadolinium-enhanced volume ([1]; sham cohort, 35 min): 0.25±0.15
- mean gadolinium-enhanced volume ([1]; sham cohort, 70 min): 0.22±0.1
- mean gadolinium-enhanced volume ([1]; sham cohort, 105 min): 0.23±0.11
- mean gadolinium-enhanced volume ([1]; sham cohort, 180 min): 0.11±0.12
- mean gadolinium-enhanced volume ([1]; sham cohort, 240 min): 0.06±0.04
- clearance timeline from the brain ([1]; with ultrasound): 3 h
- residual tracer in the brain ([1]; with ultrasound, 3 h post-injection): increased residual tracer in the brain
- time of peak parenchymal uptake ([1]; with ultrasound, from injection): 105 min
- time of peak brain concentration ([1]; without further intervention (no ultrasound), after intrathecal injection): approximately 35 min
- time to clear from the brain interstitial compartment ([1]; without further intervention, from injection): ≤ 3 h
Molecule: CNC[C@H](O)[C@@H](O)[C@H](O)[C@H](O)CO.CNC[C@H](O)[C@@H](O)[C@H](O)[C@H](O)CO.O=C([O-])CN(CCN(CC(=O)[O-])CC(=O)O)CCN(CC(=O)O)C(COCc1ccccc1)C(=O)[O-].[Gd+3] (stereo not drawn) [Gd-chelate, gadobenate dimeglumine]
- Gd-chelate deposition in the brain ([1]; T1w MRI, 24-72 h after ultrasound intervention): no any evidence of Gd deposition; also recorded: no prolonged Gd-chelate deposition

Molecule: Panitumumab-IRDye800: therapeutic antibody panitumumab (~150 kDa, EGFR-targeted) conjugated with the IR dye; large optical tracer
- brain penetration (near-infrared dye-enhanced area), ultrasound compared to sham [2]: significantly greater degree with ultrasound
- brain penetration (near-infrared dye-enhanced area), ultrasound compared to sham ([2]; listed as panitumumab): penetrated to a greater degree into the brain
